Article PMC10062709, “Fluorescence based HTS-compatible ligand binding assays for dopamine D3 receptors in baculovirus preparations and live cells” (Frontiers in Molecular Biosciences, 2023)

Target: T1, human D3 receptor (Homo sapiens, UniProt P35462)
T1 construct: host or cells: Sf9 cells; final budded baculovirus production in Mimic Sf9 insect cells
Assay: Fluorescence anisotropy competition binding with CELT-419 and D3 receptor budded baculoviruses
Conditions: FA competition with 0.5 nM CELT-419
Procedure: The competitive ligand dilutions were done on the measurement plate. Also, a point with no competitive ligand was included and for blank correction, a point with only BBV was included. Measurements were carried out with 5 min intervals for 5 h at 27 °C. In all cases, BBV was added as the last component to initiate the ligand binding process.
To fit the Log(IC50) change in time from the competition binding experiments, a single-phase exponential decay equation with a constant corresponding to the equilibrium state was used.

T1 sequence (P35462 whole entry): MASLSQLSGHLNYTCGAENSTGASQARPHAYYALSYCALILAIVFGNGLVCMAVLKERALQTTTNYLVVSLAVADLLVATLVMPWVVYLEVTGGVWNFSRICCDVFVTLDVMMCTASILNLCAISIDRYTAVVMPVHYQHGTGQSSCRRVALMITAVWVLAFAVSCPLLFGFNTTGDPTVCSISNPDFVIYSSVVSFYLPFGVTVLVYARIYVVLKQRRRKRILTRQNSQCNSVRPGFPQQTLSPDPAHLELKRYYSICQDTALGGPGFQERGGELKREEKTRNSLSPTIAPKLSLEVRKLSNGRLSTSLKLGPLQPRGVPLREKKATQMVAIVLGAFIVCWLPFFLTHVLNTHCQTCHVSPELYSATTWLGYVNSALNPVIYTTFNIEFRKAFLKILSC

In the case of CN1CCc2cccc3c2[C@H]1Cc1ccc(O)c(O)c1-3 [Apomorphine], the “Log(IC50) values change in time” value is reported as “increased in time”.
